One substance from patent US20220000817A1, “PROGNOSIS AND TREATMENT OF METASTATIC CANCER” (Academia Sinica, priority 2018, published 2022) can be followed below.

Data set [1] has as its system H1299 cells. Description: Wound-healing migration and transwell invasion after EFHD2 knockdown. It counts as cell-based, human. To be noted: EFHD2 knockdown in H1299 cells. The method, then:
FIG. 1. EFHD2 increases the metastatic abilities of lung adenocarcinoma cells. The effects of EFHD2 overexpression in A549 cells and EFHD2-knockdown in H1299 cells on metastatic abilities were determined. (A) Migration ability was analyzed by wound-healing assay. (B) Invasive ability was analyzed by transwell invasion assay. (C) Invadopodia were visualized by colocalized of cortactin (green) and F-actin (red). (D) Quantification of cancer cells with invadopodia. N=100 cells/sample. **, P<0.01.
Wound healing assay. The in vitro migration assay was performed using a Culture-Insert well (ibidi GmbH, German/v). Cancer cells (4.5×10^4 cells) were cultured in suitable media in the device for 24 hr. After removal of the Culture-Insert, cancer cells were cultured for an additional 8 hr. The migration distance of cancer cells was recorded, and the migration area was measured using ImageJ software.
Matrigel invasion assay. For in vitro invasion assay, cancer cells (1.5×10^5 cells in 200 μL) were suspended in the upper half of a PET membrane transwell insert chamber (BD Biosciences), which was coated with Matrigel (1 mg/mL; BD Biosciences), on a 24-well plate. […]

Data set [2] relates to H1299 cells. Description: MTT cell growth after EFHD2 knockdown. It counts as cell-based, human. The conditions noted are these: EFHD2 knockdown in H1299 cells. The method, then:
MTT assay. […] The absorbance of the solution at 570 nm was measured by spectrophotometer.
To determine whether EFHD2 contributes to the metastatic abilities of lung adenocarcinoma cells, the pcDNA vector was used to overexpress EFHD2 in A549 cells and shRNA (i.e., shEFHD2) to knockdown EFHD2 in H1299 cells.

Take “shEFHD2: short hairpin RNA directing cleavage of EFHD2 gene RNA; SEQ ID NO: 4, encoded by SEQ ID NO: 1 (GGCCCUCUUCUACAAGUUCGUCAUAGAGCUCUAUGACGAACUUGUAGAAGAGAAAAAAC; expressed or natural sequence)”: the invasiveness result in the data set on H1299 cells [1] (transwell invasion assay) is given as “opposite effects”. In the data set on H1299 cells [1] (wound-healing assay), the migration entry is “opposite effects”. In addition, the cell growth entry with H1299 cells [2] is “did not obviously affect cell growth”.
